# In publication PMC10510102, “Efficient Ligand Discovery Using Sulfur(VI) Fluoride Reactive Fragments” (ACS Chemical Biology, 2023):
# Several values for one entry are separate records, joined by “and”; a condition that tells them apart may be missing. Equal entries are not always repeated. Entries after “also recorded” stand apart in the source; their conditions may differ.
# How the values were obtained:
# HEK293T cells = test: Chemoproteomic profiling, proteins enriched by alkyne probes; type: cell-based, human; settings: 10 μM probe, 1 h; log2 ratio ≥0.58, p-value ≤0.05, #unique peptides ≥2
# Experimental: (§1) HEK293T cells were treated for 1 h with probes 2j, 2k, or 2l (10 μM) or the DMSO vehicle. Competition-based experiments were also conducted where cells were pretreated with parent hits 2d (40 μM) or 2e (40 μM) for 1 h, before the addition of alkyne-containing probes 2j (10 μM) or 2k (10 μM), respectively. Following incubation, treated cells were lysed and conjugated with biotin-azide by Cu-click, and biotinylated proteins were enriched using NeutrAvidin beads. Enriched proteins were digested with LysC and trypsin, prior to analysis by LC–MS/MS (Figure 4b). […]
# (§2) 6.2. Chemoproteomics workflow
# (§3) Acetylation of NeutrAvidin agarose slurry:
# (§4) NeutrAvidin agarose slurry (10 mL) (Thermo Fisher Scientific, 29204) was centrifuged (2 min, 2000 rpm) prior to removal of the supernatant. The beads were washed three times with PBS. PBS (9 mL) and Sulfo-NHS-acetate (482 μL, 400 mM in DMSO) (Thermo Fisher Scientific, 26777) were added, the beads were incubated at room temperature for 30 min on a falcon tube roller, and then centrifuged (2 min, 2000 rpm). Supernatant was removed and the incubation step with freshly made NHS-acetate was repeated. The reaction was quenched by adding Tris (2 mL, 1 M, pH 7.5). The beads were washed once with PBS and twice with 20% EtOH. 20% EtOH (5 mL) was added, and the beads were stored at 4 °C.
# Chemoproteomics workflow:
# HEK293T cell line (human origin, The Francis Crick Institute cell service) was used for this study. The cells were maintained at 37 °C with 5% CO2 in DMEM media supplemented with 10% fetal bovine serum and 1% L-Glutamine–Penicillin–Streptomycin solution (200 mM L-glutamine, 10,000 U/mL penicillin and 10 mg/mL streptomycin).
# HEK293T cells were treated in triplicate with the parent compounds 2d and 2e (40 μM final concentration) or DMSO vehicle for 1 h at 37 °C in serum free media followed by a 1 h treatment with the probes 2j, 2k and 2l (10 μM final concentration) or DMSO vehicle.
# (§5) Media was removed and cells were washed with PBS. […] Protein concentration of each lysate was determined using a BCA assay (Thermo Fisher Scientific, 23227). […]
# CAII [1] = biological target: T1, CAII (Homo sapiens, UniProt P00918); test: Chemoproteomic target engagement of CAII in cells; type: cell-based; settings: HEK293T cells, 10 μM probe, 1 h, vs DMSO
# Experimental: as §1, §2, §3
# as §4, with “The beads were washed once with PBS and twice with 20% EtOH. 20% EtOH (5 mL) was added, and the beads were stored at 4 °C.” left out
# as §5
# CAII [2] = biological target: T1, CAII; test: Single shot screen of chemoproteomic probes, intact protein LC-MS; type: binding; set-up: purchased Sigma Aldrich C6624-500UG; host or cells: E. coli; settings: 1 μM CAII, 50 μM SF, 4 °C, 24 h
# Description: Hits from the CAII screen were progressed to chemoproteomic profiling to determine cellular target engagement and to measure their off-target profiles. SFs 2d and 2e were functionalized with an alkyne handle at the linking amide group to give probes 2j and 2k. A structurally similar negative control was also designed by substitution of the sulfonamide for a methoxy group, 2l (Figure 4a). […] The proteins engaged by these three probes were subsequently studied in HEK293T cells. […]
# 6.1. Single shot screen of chemoproteomic probes against CAII
# The (synthesized and purified) active probes 2j, and 2k, as well as negative control 2l, were plated into a Greiner 384 white low volume plate from a 10 mM source in DMSO. Purified CAII diluted from original stock into a buffer made up of HEPES (pH 7.5, 25 mM) and NaCl (50 mM) in distilled MS-grade water (15 µL per well) was subsequently added across the plate. Final concentrations: 1 µM protein; 50 µM SF. The plate was sealed, centrifuged (1 min, 1000 rpm), incubated at 4 °C for 24 h, and subsequently analyzed by intact protein LC-MS. Modification yields were measured as 78% for 2j and 95% for 2k.
# 6.2. Chemoproteomics workflow […]
# Chemoproteomics workflow: […]
# Samples were incubated with acetylated NeutrAvidin agarose slurry (100 µL) (pre-washed three times with 0.2% SDS in HEPES (50 mM, pH 8.0)) on a combinatorial microlute plate (Porvair, 240002) for 2 h. The plate was centrifuged (1 min, 700 g) to remove supernatants.
# The beads were washed three times with lysis buffer and 0.2% SDS in HEPES (50 mM, pH 8.0). The proteins were digested on-bead overnight at 37 °C with LysC (60 μL, 0.004 μg/μL) in HEPES (50 mM, pH 8.0). The supernatants were collected (1 min, 700 g) on a fresh plate and trypsin (30 μL, 0.006 μg/μL) in HEPES (50 mM, pH 8.0) was added to each sample. The samples were incubated for 4 h at 37 °C and acidified with 20% formic acid (10 μL).
# The peptide samples were cleaned-up using C18 96-well plate (BioPureSPE Macro 96-Well, 100 mg PROTO C18, The Nest Group). The wells were conditioned with acetonitrile (300 μL) (centrifuged for 1 min at 50 g) and equilibrated twice with 0.1% TFA (300 μL) (centrifuged for 1 min at 150 g). 0.1% TFA (100 μL) was added to digest samples, and these were subsequently loaded on the plate (centrifuged for 1 min at 150 g). The samples were washed twice with 0.1% TFA (200 μL) (centrifuged for 1 min at 150 g). The plate was centrifuged once more at 200 g for 1 min. The peptides were eluted in two steps with 0.1% TFA (150 μL) in 50% acetonitrile
# BCL6 = test system: BCL6; set-up: method as in PMID 34274316; settings: cited from earlier work
# BCL6 BTB/POZ domain = BCL6 BTB/POZ domain (Homo sapiens, UniProt P41182, C67R/C84N/C8Q); test: Conventional differential scanning fluorimetry (DSF); type: binding; set-up: hBCL6-Flag 3Cmut (5-129) produced in house; FLAG (C); made in house
# Experimental: We subsequently analyzed protein-fragment interactions using differential scanning fluorimetry (DSF) to explore the impact of these binding events on protein stability.[45] […] […]; this illustrates the impact of covalent modification on protein–ligand binding. […]
# 8.2. Conventional differential scanning fluorimetry (DSF)
# BCL6-SF covalent complex preparation:
# SFs 2f–i, 2p, 2q, 2s, and 2t in DMSO-d 6 (200 mM stock) or pure DMSO-d 6 were added to crystallizable BCL6 BTB/POZ domain (10 µM) in 20 mM Tris pH 8.5 and 200 mM NaCl. The reactions were incubated at 20 °C for 6 h (meta-substituted benzamide fragments) or 24 h (azetidinyl/piperidinyl fragments). Final concentrations: 10 µM protein, 500 µM SF, DMSO 0.25% v/v in 200 µL. Unreacted compound and DMSO-d 6 were removed by buffer-exchanging protein solutions into 20 mM Tris pH 8.5, 200 mM NaCl and 5% v/v glycerol inside Vivaspin 500 PES Centrifugal Concentration units. The protein was concentrated to 0.6–1.3 mg/mL within the units, according to UV-vis absorption spectrophotometry via a Nanodrop ND-1000 instrument. Protein was flash frozen using a dry ice/ethanol bath prior to […]
# Differential scanning fluorimetry assay:
# GSK137 (40 mM stock) or pure DMSO-d 6 were added to crystallizable BCL6 BTB/POZ domain (11 µM) in 20 mM Tris pH 8.5, 200 mM NaCl and 5% v/v glycerol to give solutions containing: 11 µM protein, DMSO 0.63% v/v and 222 µM GSK137 (where applicable).
# Concentrated protein-SF complexes were also thawed and diluted to 11 µM in 20 mM Tris pH 8.5, […] and 5% v/v glycerol.
# SYPRO Orange dye (Invitrogen S6650) in extra dilution buffer (50×, eq. 1% v/v DMSO) was added to give assay-ready solutions with final concentrations: 10 µM protein, SYPRO 5×, DMSO 0.1% v/v in volume 80 µL for the protein-SF covalent complexes or 10 µM protein, SYPRO 5×, DMSO 0.6% v/v in volume 100 µL with and without 200 µM GSK137.
# Each solution was aliquoted (3 × 20 µL) into wells of an opaque 384-well PCR microplate (Axygen PCR-384-LC480-W) and coated with silicone oil DC 200 (5 µL; Fluka Chemicals 85413). The microplate was centrifuged (1 min, 200 g) prior to insertion into a Fluodia T70 spectrophotometer (Photal Instruments). The fluorescence intensity was detected (emission wavelength: […]) as the plate instrument interior was heated from 27–75 °C using a temperature stepping mode (waiting time before measurement: 60 s; fluorescence measurement interval: 45 s). The approximate temperature gradient was 0.5 °C min-1.
# The fluorescence intensity data from the individual replicates of each sample type were normalized and identically truncated within GraphPad Prism 5.0.4.11 These values were subsequently fitted to equation (4) corresponding to a Boltzmann sigmoid in order to obtain the melting temperature (“V50”; T m) of the protein:
# Y=BOTTOM+((TOP+BOTTOM)/(1+exp((V50–X)/SLOPE))) (4)
# The three obtained T m values were averaged to give a final T m value in each case. The normalized fluorescence data for the three replicates of each sample were averaged to yield a single dataset for each case, which were then plotted in GraphPad Prism 5.0.4 to give the plots shown in the manuscript.11
# Table S9. Thermal melting temperatures of unmodified and covalently modified BCL6 BTB/POZ domain as determined by differential scanning fluorimetry measurements.
# The arithmetic mean and standard deviation from three replicates are shown.
# Hit Chemotype Protein Species Tm / °C ΔT m / °C […]
# meta-Substituted Benzamide BCL6 + 2g 70.4 ± 0.3 +11.7
# Azetidinyl Fragments BCL6 + 2h 55.5 ± 0.1 −3.2 […]
# 8.3. Protocol for kinetic analyzes (BCL6)
# The (resynthesized and purified) SF hits (2f–i) were plated into seven Greiner 384 white low volume plate from a 10 mM source in DMSO. Differing volumes were added such that the final concentrations for each compound would be: 100, 50, 20, 10, or 5 µM after adding 15 µL of protein stock solution per well. […]
"Tm (BCL6 BTB/POZ domain; 10 μM protein, covalent complex (500 μM SF, 6 or 24 h) or 200 μM GSK137, mean ± SD, three replicates) [°C]",ΔTm (BCL6 BTB/POZ domain; relative to unmodified BCL6),SMILES,number of proteins enriched by comparison to DMSO control (HEK293T cells),enrichment of CAII (CAII [1]),covalent modification of purified CAII (CAII [2]),modification yield (CAII [2]) [%],biochemical pIC50 (BCL6)
–,–,C#CCN(Cc1cccc(S(N)(=O)=O)c1)C(=O)Cc1ccc(S(=O)(=O)F)cc1 [2j],523,some enrichment,covalently modified CAII,78,–
–,–,C#CCN(CCc1ccc(S(N)(=O)=O)cc1)C(=O)Cc1ccc(S(=O)(=O)F)cc1 [2k],501,some enrichment,covalently modified CAII,95,–
–,–,C#CCN(Cc1cccc(OC)c1)C(=O)Cc1ccc(S(=O)(=O)F)cc1 [2l],447,–,Negligible modification; also recorded: did not,–,–
> 72,> 12.3 °C and ~12 °C,"Cc1ncccc1[C@H]1C[C@@H](c2cccc3nc(N)ccc23)Nc2c(F)cnn21 [GSK137, reference compound]",–,–,–,–,8
